This passage reports t50-Wert results from EP1756125B1, “1,1,3,3,3-[…]-1-OXO/THIO-1LAMBDA5,3LAMBDA5-DIPHOSPHAZ-2-ENES, METHOD FOR PRODUCING THEM AND THEIR USE AS AGENTS FOR […] […] […] UREA” (SKW STICK[…] GmbH, priority 2004, dated 2005).

SMILES strings stand for the structures.

This assay deals with Urease. Nature of the assay: Test for urease-inhibiting effect in soil (NH3-N release from urea, closed vessel with ammonia trap). The class given is biochemical. The conditions noted are these: soil at 40 % of maximum water capacity, 50 mg urea, t50 = day after start at which inhibition of urea hydrolysis is still 50 %. As for the experimental part:
30 g auf 40 % der maximalen Wasserkapazität eingestellter Boden werden mit 1 ml Harnstofflösung entsprechend 50 mg Harnstoff versetzt. Gleichzeitig erfolgt die Applikation des Wirkstoffes, vorzugsweise in der Harnstofflösung gelöst. Die Konzentrationsangaben für die einzelnen geprüften Wirkstoffe in der nachfolgenden Tabelle beziehen sich auf die im Test verwendete Menge an Carbamidstickstoff. Der Boden, auf dessen Oberfläche die Harnstofflösung (mit und ohne Wirkstoff) aufgebracht wird, befindet sich in einem luftdicht verschlossenen Gefäß, in das gleichzeitig eine Vorlage eingebracht wird, die den aus dem Harnstoff freigesetzten Ammoniak als Ammonium auffängt. Durch tägliches Überspülen der Vorlage und Analyse der enthaltenen NH4-N-Mengen wird die NH3-N-Freisetzung aus dem Harnstoff bestimmt.
Aus der Summation der Ammonium-Mengen in der Vorlage wird die prozentuale Hemmung der Harnstoff-Hydrolyse in Abhängigkeit von der Zeit berechnet bzw. aus diesen Werten der t50-Wert rechnerisch ermittelt.
Als t50-Wert wird der Zeitpunkt in Tagen nach Versuchsbeginn verstanden, zu dem die Hemmung der Harnstoff-Hydrolyse noch 50 % beträgt.

As for `CCCCNP(N)(=NP(N)(N)=S)NCCCC` [Verbindung 1, 3,3-Bis(butylamino)-1,1,3,-triamino-1-thio-1λ^5,3λ^5-diphosphaz-2-en], the t50-Wert (Konz. 0,1 % HS-N-bez.) is 9,4 d.

Take `CCCCNP(N)(=NP(N)(N)=O)NCCCC` [Verbindung 2, 3,3-Bis(butylamino)-1,1,3,-triamino-1-oxo-1λ^5,3λ^5-diphosphaz-2-en]: the t50-Wert (Konz. 0,1 % HS-N-bez.) was 8,8 d.

Consider `CCCNP(N)(=NP(N)(N)=S)NCCC` [Verbindung 3, 3,3-Bis(propylamino)-1,1,3,-triamino-1-thio-1λ^5,3λ^5-diphosphaz-2-en], for which the t50-Wert (Konz. 0,1 % HS-N-bez.) is 10,4 d.

`CCCNP(N)(=NP(N)(N)=O)NCCC` [Verbindung 4, 3,3-Bis(propylamino)-1,1,3,-triamino-1-oxo-1λ^5,3λ^5-diphosphaz-2-en]: the t50-Wert (Konz. 0,1 % HS-N-bez.) is 9,6 d.

On to `CCCCNP(N)(N)=NP(N)(N)=S` [Verbindung 5, 3-Butylamino-1,1,3,3-tetraamino-1-thio-1λ^5,3λ^5-diphosphaz-2-en], for which the t50-Wert (Konz. 0,1 % HS-N-bez.) was 14,5 d.

On to `CCCNP(N)(N)=NP(N)(N)=S` [Verbindung 6, 3-Propylamino-1,1,3,3-tetraamino-1-thio-1λ^5,3λ^5-diphosphaz-2-en], for which, where the note is “Konz. 0,1 % HS-N-bez.”, the t50-Wert was 14,2 d.

Turning to `CCN(CC)P(N)(N)=NP(N)(N)=S` [Verbindung 7, 3-Diethylamino-1,1,3,3-tetraamino-1-thio-1λ^5,3λ^5-diphosphaz-2-en], where the note is “Konz. 0,5 % HS-N-bez.”, the t50-Wert is recorded as 7,9 d.
